Assay: xn = mol fraction of the nth substance listed

CC[n+]1ccn(C)c1.O=S(=O)([N-]S(=O)(=O)C(F)(F)F)C(F)(F)F + CC[n+]1ccn(C)c1.F[B-](F)(F)F
100 kPa
Settings | electrical conductivity [S/m] | viscosity [mPa·s]
243.15 K, x1 = 0.2 | 0.039 | –
243.15 K, x1 = 0.3 | 0.043 | –
243.15 K, x1 = 0.4 | 0.033 | –
243.15 K, x1 = 0.5 | 0.038 | –
243.15 K, x1 = 0.6 | 0.023 | –
243.15 K, x1 = 0.7 | 0.046 | –
243.15 K, x1 = 0.8 | 0.028 | –
243.15 K, x1 = 1 | 0.011 | –
248.15 K, x1 = 0.2 | 0.062 | –
248.15 K, x1 = 0.3 | 0.068 | –
248.15 K, x1 = 0.4 | 0.053 | –
248.15 K, x1 = 0.5 | 0.06 | –
248.15 K, x1 = 0.6 | 0.039 | –
248.15 K, x1 = 0.7 | 0.072 | –
248.15 K, x1 = 0.8 | 0.045 | –
248.15 K, x1 = 1 | 0.019 | –
253.15 K, x1 = 0.2 | 0.094 | 478
253.15 K, x1 = 0.3 | 0.102 | 485
253.15 K, x1 = 0.4 | 0.081 | 468
253.15 K, x1 = 0.5 | 0.09 | 460
253.15 K, x1 = 0.6 | 0.061 | –
253.15 K, x1 = 0.7 | 0.107 | 435
253.15 K, x1 = 0.8 | 0.069 | 403
253.15 K, x1 = 1 | 0.031 | 350
258.15 K, x1 = 0.2 | 0.136 | –
258.15 K, x1 = 0.3 | 0.146 | –
258.15 K, x1 = 0.4 | 0.118 | –
258.15 K, x1 = 0.5 | 0.13 | –
258.15 K, x1 = 0.6 | 0.091 | –
258.15 K, x1 = 0.7 | 0.152 | –
258.15 K, x1 = 0.8 | 0.099 | –
258.15 K, x1 = 1 | 0.047 | –
263.15 K, x1 = 0.2 | 0.19 | 226
263.15 K, x1 = 0.3 | 0.202 | 229
263.15 K, x1 = 0.4 | 0.166 | 222
263.15 K, x1 = 0.5 | 0.18 | 220
263.15 K, x1 = 0.6 | 0.131 | –
263.15 K, x1 = 0.7 | 0.208 | 208
263.15 K, x1 = 0.8 | 0.138 | 193
263.15 K, x1 = 1 | 0.07 | 173
268.15 K, x1 = 0.2 | 0.255 | –
268.15 K, x1 = 0.3 | 0.27 | –
268.15 K, x1 = 0.4 | 0.226 | –
268.15 K, x1 = 0.5 | 0.242 | –
268.15 K, x1 = 0.6 | 0.18 | –
268.15 K, x1 = 0.7 | 0.276 | –
268.15 K, x1 = 0.8 | 0.186 | –
268.15 K, x1 = 1 | 0.099 | –
273.15 K, x1 = 0.2 | 0.334 | 122
273.15 K, x1 = 0.3 | 0.351 | 124
273.15 K, x1 = 0.4 | 0.298 | 120
273.15 K, x1 = 0.5 | 0.316 | 120
273.15 K, x1 = 0.6 | 0.241 | –
273.15 K, x1 = 0.7 | 0.357 | 114
273.15 K, x1 = 0.8 | 0.243 | 105
273.15 K, x1 = 1 | 0.135 | 96.5
278.15 K, x1 = 0.2 | 0.427 | –
278.15 K, x1 = 0.3 | 0.445 | –
278.15 K, x1 = 0.4 | 0.383 | –
278.15 K, x1 = 0.5 | 0.403 | –
278.15 K, x1 = 0.6 | 0.314 | –
278.15 K, x1 = 0.7 | 0.452 | –
278.15 K, x1 = 0.8 | 0.31 | –
278.15 K, x1 = 1 | 0.179 | –
283.15 K, x1 = 0.2 | 0.533 | 72.6
283.15 K, x1 = 0.3 | 0.553 | 74
283.15 K, x1 = 0.4 | 0.481 | 72.4
283.15 K, x1 = 0.5 | 0.503 | 72.1
283.15 K, x1 = 0.6 | 0.4 | –
283.15 K, x1 = 0.7 | 0.559 | 69.1
283.15 K, x1 = 0.8 | 0.388 | 63.8
283.15 K, x1 = 1 | 0.232 | 59.3
288.15 K, x1 = 0.2 | 0.654 | –
288.15 K, x1 = 0.3 | 0.674 | –
288.15 K, x1 = 0.4 | 0.594 | –
288.15 K, x1 = 0.5 | 0.617 | –
288.15 K, x1 = 0.6 | 0.499 | –
288.15 K, x1 = 0.7 | 0.68 | –
288.15 K, x1 = 0.8 | 0.475 | –
288.15 K, x1 = 1 | 0.294 | –
293.15 K, x1 = 0.2 | 0.79 | 46.7
293.15 K, x1 = 0.3 | 0.81 | 47.9
293.15 K, x1 = 0.4 | 0.721 | 47
293.15 K, x1 = 0.5 | 0.744 | 47
293.15 K, x1 = 0.6 | 0.612 | –
293.15 K, x1 = 0.7 | 0.815 | 45.3
293.15 K, x1 = 0.8 | 0.574 | 41.7
293.15 K, x1 = 1 | 0.365 | 39.2
298.15 K, x1 = 0.2 | 0.939 | –
298.15 K, x1 = 0.3 | 0.958 | –
298.15 K, x1 = 0.4 | 0.862 | –
298.15 K, x1 = 0.5 | 0.885 | –
298.15 K, x1 = 0.6 | 0.738 | –
298.15 K, x1 = 0.7 | 0.963 | –
298.15 K, x1 = 0.8 | 0.682 | –
298.15 K, x1 = 1 | 0.447 | –
303.15 K, x1 = 0.2 | – | 32
303.15 K, x1 = 0.3 | – | 33
303.15 K, x1 = 0.4 | – | 32.5
303.15 K, x1 = 0.5 | – | 32.5
303.15 K, x1 = 0.7 | – | 31.5
303.15 K, x1 = 0.8 | – | 29
303.15 K, x1 = 1 | – | 27.4
313.15 K, x1 = 0.2 | – | 23
313.15 K, x1 = 0.3 | – | 23.9
313.15 K, x1 = 0.4 | – | 23.6
313.15 K, x1 = 0.5 | – | 23.6
313.15 K, x1 = 0.7 | – | 23
313.15 K, x1 = 0.8 | – | 21.1
313.15 K, x1 = 1 | – | 20.1
323.15 K, x1 = 0.2 | – | 17.3
323.15 K, x1 = 0.3 | – | 18
323.15 K, x1 = 0.4 | – | 17.8
323.15 K, x1 = 0.5 | – | 17.8
323.15 K, x1 = 0.7 | – | 17.5
323.15 K, x1 = 0.8 | – | 16
323.15 K, x1 = 1 | – | 15.3
333.15 K, x1 = 0.2 | – | 13.4
333.15 K, x1 = 0.3 | – | 14.1
333.15 K, x1 = 0.4 | – | 13.9
333.15 K, x1 = 0.5 | – | 13.9
333.15 K, x1 = 0.7 | – | 13.8
333.15 K, x1 = 0.8 | – | 12.6
333.15 K, x1 = 1 | – | 12.1

CO + CC[n+]1ccn(C)c1.F[B-](F)(F)F
101 kPa, x2 = 0
Settings | viscosity [mPa·s]
303.15 K | 0.504
313.15 K | 0.442
323.15 K | 0.39
333.15 K | 0.344

CC[S+](CC)CCOCCOCCOCCOCC[S+](CC)CC.O=S(=O)([N-]S(=O)(=O)C(F)(F)F)C(F)(F)F.O=S(=O)([N-]S(=O)(=O)C(F)(F)F)C(F)(F)F + CC[n+]1ccn(C)c1.N#C[N-]C#N + O=S(=O)([N-]S(=O)(=O)C(F)(F)F)C(F)(F)F.[Li+]
100 kPa, x1 = 0.1416, x2 = 0.7549
Settings | electrical conductivity [S/m]
298 K | 0.679
303 K | 0.979
313 K | 1.29
323 K | 1.7
333 K | 2.05
343 K | 2.41

C[N+]1(CCOCC[N+]2(C)CCCC2)CCCC1.O=S(=O)([N-]S(=O)(=O)C(F)(F)F)C(F)(F)F.O=S(=O)([N-]S(=O)(=O)C(F)(F)F)C(F)(F)F + CC[n+]1ccn(C)c1.N#C[N-]C#N + O=S(=O)([N-]S(=O)(=O)C(F)(F)F)C(F)(F)F.[Li+]
100 kPa, x1 = 0.1626, x2 = 0.7364
Settings | electrical conductivity [S/m]
298 K | 0.806
303 K | 1.08
313 K | 1.43
323 K | 1.82
333 K | 2.2
343 K | 2.65

— the CheMixHub ionic liquid set
